Source: US9423396B2, “Bodipy structure fluorescence probes for diverse biological applications” (National University of Singapore, priority 2011, dated 2016)

Assay: Spectroscopic measurements (absorption, emission, quantum yield, extinction coefficient)
Format: physicochemical
[1] = BDNCA library, difference emission minus absorption
[2] = BDNCA library, extinction coefficient; in M-1 cm-1 (unit assumed)
[3] = BDNCA library, fluorescence emission
[4] = absorption maximum, BDNCA library
[5] = extinction coefficient, BDNCA library; in M-1 cm-1 (unit assumed)
[6] = fluorescence emission maximum, BDNCA library
[7] = difference of emission and absorption maxima

Compound: CC1=CC(/C=C/c2ccc(OC(C)(C)C)cc2)=[N+]2C1=C(c1ccc(NC(=O)CCl)cc1)c1cccn1[B-]2(F)F [BDNCA-75]
- Qunt. Yield (BDNCA library): 0.09
- Abs (BDNCA library, absorption): 562 nm
- Flu-Abs [1]: 38
- ε [2]: 35,973
- Flu [3]: 600

Compound: CC1=CC(/C=C/c2cn(C)c3ccccc23)=[N+]2C1=C(c1ccc(NC(=O)CCl)cc1)c1cccn1[B-]2(F)F [BDNCA-94]
- Qunt. Yield (BDNCA library): 0.02
- Abs (BDNCA library, absorption): 548 nm
- Flu-Abs [1]: 114
- ε [2]: 23,890
- Flu [3]: 662

Compound: C=CCOc1ccccc1/C=C/C1=[N+]2C(=C(c3ccc(NC(=O)CCl)cc3)c3cccn3[B-]2(F)F)C(C)=C1 [BDNCA-202]
- Qunt. Yield (BDNCA library): 0.13
- Abs (BDNCA library, absorption): 561 nm
- Flu-Abs [1]: 24
- ε [2]: 57,666
- Flu [3]: 585

Compound: CC1=CC(/C=C/C=C/c2ccco2)=[N+]2C1=C(c1ccc(NC(=O)CCl)cc1)c1cccn1[B-]2(F)F [BDNCA-417]
- Abs [4]: 519 nm
- ε [5]: 13,730
- Flu [6]: weak
- Qunt. Yield (quantum yield, BDNCA library): weak

Compound: CC1=CC(/C=C/c2cccc(B(O)O)c2)=[N+]2C1=C(c1ccc(NC(=O)CCl)cc1)c1cccn1[B-]2(F)F [BDNCA-404]
- Abs [4]: 556 nm
- Flu-Abs [7]: 18
- ε [5]: 18,124
- Flu [6]: 574
- Qunt. Yield (quantum yield, BDNCA library): 0.03

Compound: COc1cc(/C=C/C2=[N+]3C(=C(c4ccc(NC(=O)CCl)cc4)c4cccn4[B-]3(F)F)C(C)=C2)cc(Br)c1OC [BDNCA-259]
- Qunt. Yield (BDNCA library): 0.11
- Abs (BDNCA library, absorption): 561 nm
- Flu-Abs [1]: 21
- ε [2]: 49,428
- Flu [3]: 582

Compound: CC(=O)Oc1ccc(/C=C/c2cc(C)c3n2[B-](F)(F)[N+]2=CC=CC2=C3c2ccc(NC(=O)CCl)cc2)cc1 [BDNCA-41]
- Abs [4]: 565 nm
- Flu-Abs [7]: 29
- ε [5]: 47,780
- Flu [6]: 594
- Qunt. Yield (quantum yield, BDNCA library): 0.13

Compound: CC1=CC(/C=C/c2ccc(Cl)cc2)=[N+]2C1=C(c1ccc(NC(=O)CCl)cc1)c1cccn1[B-]2(F)F [BDNCA-12]
- Qunt. Yield (BDNCA library): 0.10
- Abs (BDNCA library, absorption): 557 nm
- Flu-Abs [1]: 19
- ε [2]: 49,428
- Flu [3]: 576

Compound: CC1=CC(/C=C/c2cccc(O)c2)=[N+]2C1=C(c1ccc(NC(=O)CCl)cc1)c1cccn1[B-]2(F)F [BDNCA-105]
- Qunt. Yield (BDNCA library): 0.06
- Abs (BDNCA library, absorption): 556 nm
- Flu-Abs [1]: 19
- ε [2]: 38,719
- Flu [3]: 575

Compound: CC1=CC(/C=C/c2cccc(O)c2Cl)=[N+]2C1=C(c1ccc(NC(=O)CCl)cc1)c1cccn1[B-]2(F)F [BDNCA-283]
- Qunt. Yield (BDNCA library): 0.05
- Abs (BDNCA library, absorption): 556 nm
- Flu-Abs [1]: 18
- ε [2]: 27,460
- Flu [3]: 574

Compound: Cc1cc(/C=C/c2ccccc2OC(F)F)n2c1C(c1ccc(NC(=O)CCl)cc1)=C1C=CC=[N+]1[B-]2(F)F [BDNCA-240]
- Qunt. Yield (BDNCA library): 0.08
- Abs (BDNCA library, absorption): 554 nm
- Flu-Abs [1]: 19
- ε [2]: 47,506
- Flu [3]: 573

Compound: CCc1ccc(/C=C/C2=[N+]3C(=C(c4ccc(NC(=O)CCl)cc4)c4cccn4[B-]3(F)F)C(C)=C2)cc1[N+](=O)[O-] [BDNCA-252]
- Qunt. Yield (BDNCA library): 0.08
- Abs (BDNCA library, absorption): 556 nm
- Flu-Abs [1]: 20
- ε [2]: 57,666
- Flu [3]: 576

Compound: COc1ccc(/C=C/C2=[N+]3C(=C(c4ccc(NC(=O)CCl)cc4)c4cccn4[B-]3(F)F)C(C)=C2)cc1[N+](=O)[O-] [BDNCA-350]
- Abs [4]: 560 nm
- Flu-Abs [7]: 21
- ε [5]: 34,874
- Flu [6]: 581
- Qunt. Yield (quantum yield, BDNCA library): 0.07

Compound: COc1cc(/C=C/C2=[N+]3C(=C(c4ccc(NC(=O)CCl)cc4)c4cccn4[B-]3(F)F)C(C)=C2)cc(OC)c1O [BDNCA-95]
- Qunt. Yield (BDNCA library): 0.01
- Abs (BDNCA library, absorption): 574 nm
- Flu-Abs [1]: 6
- ε [2]: 31,579
- Flu [3]: 580

Compound: Cc1cccc(/C=C/c2cc(C)c3n2[B-](F)(F)[N+]2=CC=CC2=C3c2ccc(NC(=O)CCl)cc2)c1 [BDNCA-9]
- Qunt. Yield (BDNCA library): 0.10
- Abs (BDNCA library, absorption): 556 nm
- Flu-Abs [1]: 19
- ε [2]: 47,780
- Flu [3]: 575

Compound: COc1ccc2c(OC)ccc(/C=C/C3=[N+]4C(=C(c5ccc(NC(=O)CCl)cc5)c5cccn5[B-]4(F)F)C(C)=C3)c2c1 [BDNCA-70]
- Qunt. Yield (BDNCA library): 0.04
- Abs (BDNCA library, absorption): 587 nm
- Flu-Abs [1]: 90
- ε [2]: 29,931
- Flu [3]: 677

Compound: CC1=CC(/C=C/c2ccc(Cl)c(Cl)c2)=[N+]2C1=C(c1ccc(NC(=O)CCl)cc1)c1cccn1[B-]2(F)F [BDNCA-182]
- Qunt. Yield (BDNCA library): 0.08
- Abs (BDNCA library, absorption): 557 nm
- Flu-Abs [1]: 18
- ε [2]: 37,620
- Flu [3]: 575

Compound: CC1=CC(/C=C/c2cccc(C)c2C)=[N+]2C1=C(c1ccc(NC(=O)CCl)cc1)c1cccn1[B-]2(F)F [BDNCA-349]
- Abs [4]: 556 nm
- Flu-Abs [7]: 22
- ε [5]: 36,247
- Flu [6]: 578
- Qunt. Yield (quantum yield, BDNCA library): 0.03

Compound: COc1ccc(/C=C/C2=[N+]3C(=C(c4ccc(NC(=O)CCl)cc4)c4cccn4[B-]3(F)F)C(C)=C2)cc1O [BDNCA-132]
- Qunt. Yield (BDNCA library): 0.02
- Abs (BDNCA library, absorption): 569 nm
- Flu-Abs [1]: 30
- ε [2]: 36,796
- Flu [3]: 599

Compound: COc1ccc(/C=C/C2=[N+]3C(=C(c4ccc(NC(=O)CCl)cc4)c4cccn4[B-]3(F)F)C(C)=C2)cc1OC [BDNCA-62]
- Qunt. Yield (BDNCA library): 0.08
- Abs (BDNCA library, absorption): 570 nm
- Flu-Abs [1]: 48
- ε [2]: 38,169
- Flu [3]: 618

Compound: COC(=O)c1ccc(-c2ccc(/C=C/C3=[N+]4C(=C(c5ccc(NC(=O)CCl)cc5)c5cccn5[B-]4(F)F)C(C)=C3)cc2)cc1 [BDNCA-179]
- Qunt. Yield (BDNCA library): 0.14
- Abs (BDNCA library, absorption): 566 nm
- Flu-Abs [1]: 23
- ε [2]: 52,998
- Flu [3]: 589

Compound: CCN(CC)c1ccc(/C=C/C2=[N+]3C(=C(c4ccc(NC(=O)CCl)cc4)c4cccn4[B-]3(F)F)C(C)=C2)cc1 [BDNCA-107]
- Qunt. Yield (BDNCA library): weak
- Abs (BDNCA library, absorption): 624 nm
- ε [2]: 56,018
- Flu [3]: weak

Compound: CCCCCCOc1ccc(/C=C/C2=[N+]3C(=C(c4ccc(NC(=O)CCl)cc4)c4cccn4[B-]3(F)F)C(C)=C2)cc1 [BDNCA-45]
- Qunt. Yield (BDNCA library): 0.13
- Abs (BDNCA library, absorption): 566 nm
- Flu-Abs [1]: 32
- ε [2]: 82,929
- Flu [3]: 598

Compound: Cc1ccc(/C=C/c2cc(C)c3n2[B-](F)(F)[N+]2=CC=CC2=C3c2ccc(NC(=O)CCl)cc2)cc1 [BDNCA-208]
- Qunt. Yield (BDNCA library): 0.12
- Abs (BDNCA library, absorption): 558 nm
- Flu-Abs [1]: 23
- ε [2]: 64,805
- Flu [3]: 581

Compound: CC1=CC(/C=C/c2c(C)c(C)c(C)c(C)c2C)=[N+]2C1=C(c1ccc(NC(=O)CCl)cc1)c1cccn1[B-]2(F)F [BDNCA-67]
- Qunt. Yield (BDNCA library): 0.12
- Abs (BDNCA library, absorption): 542 nm
- Flu-Abs [1]: 40
- ε [2]: 36,522
- Flu [3]: 582

Compound: CC1=CC(/C=C/c2ccc(Oc3ccc(F)cc3)cc2)=[N+]2C1=C(c1ccc(NC(=O)CCl)cc1)c1cccn1[B-]2(F)F [BDNCA-322]
- Abs [4]: 561 nm
- Flu-Abs [7]: 27
- ε [5]: 67,826
- Flu [6]: 588
- Qunt. Yield (quantum yield, BDNCA library): 0.14

Compound: Cc1cc(/C=C/c2ccc(N(C)C)c3ccccc23)n2c1C(c1ccc(NC(=O)CCl)cc1)=C1C=CC=[N+]1[B-]2(F)F [BDNCA-377]
- Abs [4]: 590 nm
- ε [5]: 58,215
- Flu [6]: weak
- Qunt. Yield (quantum yield, BDNCA library): weak

Compound: CC1=CC(/C=C/c2cccs2)=[N+]2C1=C(c1ccc(NC(=O)CCl)cc1)c1cccn1[B-]2(F)F [BDNCA-423]
- Abs [4]: 569 nm
- Flu-Abs [7]: 25
- ε [5]: 61,510
- Flu [6]: 594
- Qunt. Yield (quantum yield, BDNCA library): 0.10

Compound: CC1=CC(/C=C/c2ccc3ccccc3c2)=[N+]2C1=C(c1ccc(NC(=O)CCl)cc1)c1cccn1[B-]2(F)F [BDNCA-137]
- Qunt. Yield (BDNCA library): 0.10
- Abs (BDNCA library, absorption): 564 nm
- Flu-Abs [1]: 20
- ε [2]: 43,387
- Flu [3]: 584

Compound: Cc1cc(/C=C/c2cccc(Br)c2O)n2c1C(c1ccc(NC(=O)CCl)cc1)=C1C=CC=[N+]1[B-]2(F)F [BDNCA-256]
- Qunt. Yield (BDNCA library): 0.04
- Abs (BDNCA library, absorption): 561 nm
- Flu-Abs [1]: 21
- ε [2]: 52,449
- Flu [3]: 582

Compound: CCCCN(CCCC)c1ccc(/C=C/C2=[N+]3C(=C(c4ccc(NC(=O)CCl)cc4)c4cccn4[B-]3(F)F)C(C)=C2)cc1 [BDNCA-17]
- Qunt. Yield (BDNCA library): weak
- Abs (BDNCA library, absorption): 627 nm
- ε [2]: 52,998
- Flu [3]: weak

Compound: Cc1cc(/C=C/c2ccc(Oc3ccc(C=O)cc3)cc2)n2c1C(c1ccc(NC(=O)CCl)cc1)=C1C=CC=[N+]1[B-]2(F)F [BDNCA-304]
- Qunt. Yield (BDNCA library): 0.02
- Abs (BDNCA library, absorption): 561 nm
- Flu-Abs [1]: 25
- ε [2]: 18,673
- Flu [3]: 586

Compound: COc1ccc(/C=C/c2cc(C)c3n2[B-](F)(F)[N+]2=CC=CC2=C3c2ccc(NC(=O)CCl)cc2)cc1 [BDNCA-110]
- Qunt. Yield (BDNCA library): 0.16
- Abs (BDNCA library, absorption): 566 nm
- Flu-Abs [1]: 30
- ε [2]: 56,568
- Flu [3]: 596

Compound: CC1=CC(/C=C/c2c[nH]c3ccc(Br)cc23)=[N+]2C1=C(c1ccc(NC(=O)CCl)cc1)c1cccn1[B-]2(F)F [BDNCA-185]
- Qunt. Yield (BDNCA library): 0.06
- Abs (BDNCA library, absorption): 581 nm
- Flu-Abs [1]: 65
- ε [2]: 29,931
- Flu [3]: 646

Compound: CC1=CC(/C=C/c2ccc(Oc3ccccc3)cc2)=[N+]2C1=C(c1ccc(NC(=O)CCl)cc1)c1cccn1[B-]2(F)F [BDNCA-101]
- Qunt. Yield (BDNCA library): 0.20
- Abs (BDNCA library, absorption): 562 nm
- Flu-Abs [1]: 27
- ε [2]: 89,245
- Flu [3]: 589

Compound: CC1=CC(/C=C/c2ccc(C)c(F)c2)=[N+]2C1=C(c1ccc(NC(=O)CCl)cc1)c1cccn1[B-]2(F)F [BDNCA-249]
- Qunt. Yield (BDNCA library): 0.12
- Abs (BDNCA library, absorption): 556 nm
- Flu-Abs [1]: 21
- ε [2]: 71,945
- Flu [3]: 577

Compound: CC1=CC(/C=C/c2ccccc2OC(F)(F)F)=[N+]2C1=C(c1ccc(NC(=O)CCl)cc1)c1cccn1[B-]2(F)F [BDNCA-365]
- Abs [4]: 553 nm
- Flu-Abs [7]: 16
- ε [5]: 45,584
- Flu [6]: 569
- Qunt. Yield (quantum yield, BDNCA library): 0.07
